Experimental data published in PMC8933034, “6-Amino-2,4,5-trimethylpyridin-3-ol and 2-amino-4,6-dimethylpyrimidin-5-ol derivatives as selective fibroblast growth factor receptor 4 inhibitors: design, synthesis, molecular docking, and anti-hepatocellular carcinoma efficacy evaluation” (Journal of Enzyme Inhibition and Medicinal Chemistry, 2022).
Values belong to the molecule of their own block, whether it stands above or below them.

Key:
[1] = target: T1, human FGFR4 kinase (Homo sapiens, UniProt P22455); test: FGFR4 kinase assay (Kinase HotSpot, Reaction Biology Corp.); assay type: biochemical; details: for inhibition at 1 µM: fixed concentration 1 μM, mean of two independent experiments; for inhibition at 0.01 µM: 0.01 μM concentration, two independent experiments
T1 construct: purchased Reaction Biology Corporation (Malvern, PA, USA), contract assay service
T1 sequence (P22455 22-802): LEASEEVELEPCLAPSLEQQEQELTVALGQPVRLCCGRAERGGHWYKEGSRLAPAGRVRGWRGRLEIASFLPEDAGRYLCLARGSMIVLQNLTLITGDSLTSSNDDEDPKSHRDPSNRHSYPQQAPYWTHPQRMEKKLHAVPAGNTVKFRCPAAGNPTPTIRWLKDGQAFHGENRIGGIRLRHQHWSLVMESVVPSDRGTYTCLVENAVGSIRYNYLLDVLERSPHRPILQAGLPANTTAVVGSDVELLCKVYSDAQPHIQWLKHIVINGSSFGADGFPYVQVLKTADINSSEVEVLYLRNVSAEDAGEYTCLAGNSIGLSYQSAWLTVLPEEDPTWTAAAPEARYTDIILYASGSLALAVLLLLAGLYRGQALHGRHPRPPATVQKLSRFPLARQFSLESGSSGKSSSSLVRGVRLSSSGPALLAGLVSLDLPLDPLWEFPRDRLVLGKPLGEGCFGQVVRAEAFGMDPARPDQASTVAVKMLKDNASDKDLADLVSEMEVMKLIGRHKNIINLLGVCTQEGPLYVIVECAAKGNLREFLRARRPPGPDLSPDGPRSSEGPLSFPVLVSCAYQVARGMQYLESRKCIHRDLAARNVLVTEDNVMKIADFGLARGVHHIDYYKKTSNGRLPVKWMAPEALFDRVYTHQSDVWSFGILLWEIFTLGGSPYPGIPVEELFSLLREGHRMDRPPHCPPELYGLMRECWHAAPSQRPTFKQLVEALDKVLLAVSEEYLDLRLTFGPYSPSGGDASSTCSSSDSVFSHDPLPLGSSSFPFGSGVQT
Experimental: A FGFR4 kinase assay was performed at the Reaction Biology Corporation (Malvern, PA, USA) using a Kinase HotSpotSM assay platform (www.reactionbiology.com, last accessed at 19/10/2020). Briefly, human FGFR4 kinase (5–10 mU), peptide substrate, and poly[Glu:Tyr] (4:1) 0.2 mg/ml were prepared in a reaction buffer with a final volume of 25 µL. The compounds were delivered into the reaction, followed ∼20 min. later by the addition of a mixture of ATP and [γ-^33P-ATP] (specific activity approx. 500 cpm/pmol, concentration as required) to a final concentration of 10 µM. After incubation for 40 min. at 25 °C, the reaction was stopped by the addition of a 3% phosphoric acid solution. Then, the reaction was spotted onto a P30 filtermat, and unbound phosphate was removed by washing 3 times for 5 min in 75 mM phosphoric acid and once in methanol prior to drying and scintillation counting. […] IC50 values and curve fits were obtained using GraphPad Prism 5 software.

[2] = Cytotoxicity assay (MTT), H6c7; assay type: cell-based; details: human, H6c7 normal pancreatic duct epithelial cells, 48 h treatment, mean ± SEM of three independent experiments, read-out: IC50 on cell viability (cytotoxicity), H6c7
Experimental: (§1) Human HCC cell lines, Hep3B and Huh7 were obtained from American Type Culture Collection (ATCC, Manassas, VA, USA). An H6c7 human normal pancreatic duct epithelial cell line was purchased from Kerafast (Boston, MA, USA). Hep3B and Huh7 cells were cultured in Dulbecco′s Modified Eagle′s Medium (DMEM) (Hyclone, Logan, UT, USA). The media were supplemented with 10% foetal bovine serum (FBS) (Gibco/ThermoFisher Scientific) and 1% penicillin/streptomycin (Gibco/ThermoFisher Scientific). H6c7 cells were maintained in a keratinocyte serum-free medium supplemented with a recombinant […] growth factor (rEGF) and bovine pituitary extract (Gibco/ThermoFisher Scientific). All the cells were incubated at 37 °C under a 5% CO2 atmosphere.
The cytotoxicity of the compounds was assessed by measuring the cell viability decrease using the MTT staining method. Briefly, H6c7 cells were seeded in a 96-well plate (Falcon, USA) at a density of 4 × 10^4 cells per well in keratinocyte serum-free medium. After 24 h, Cells were incubated with different concentrations (0.1, 1, 3, 10, 30, and 100) µM of each compound for 48 h, and the cell viability was measured using MTT assay. Optical density was measured at 540 nm using a microplate reader (BMG LABTECH).

[3] = target: T2, FGFR2 (Homo sapiens, UniProt P21802); test: FGFR2 ADP-glow kinase assay; assay type: biochemical
T2 construct: purchased Promega, WI, USA
T2 sequence (P21802 22-821): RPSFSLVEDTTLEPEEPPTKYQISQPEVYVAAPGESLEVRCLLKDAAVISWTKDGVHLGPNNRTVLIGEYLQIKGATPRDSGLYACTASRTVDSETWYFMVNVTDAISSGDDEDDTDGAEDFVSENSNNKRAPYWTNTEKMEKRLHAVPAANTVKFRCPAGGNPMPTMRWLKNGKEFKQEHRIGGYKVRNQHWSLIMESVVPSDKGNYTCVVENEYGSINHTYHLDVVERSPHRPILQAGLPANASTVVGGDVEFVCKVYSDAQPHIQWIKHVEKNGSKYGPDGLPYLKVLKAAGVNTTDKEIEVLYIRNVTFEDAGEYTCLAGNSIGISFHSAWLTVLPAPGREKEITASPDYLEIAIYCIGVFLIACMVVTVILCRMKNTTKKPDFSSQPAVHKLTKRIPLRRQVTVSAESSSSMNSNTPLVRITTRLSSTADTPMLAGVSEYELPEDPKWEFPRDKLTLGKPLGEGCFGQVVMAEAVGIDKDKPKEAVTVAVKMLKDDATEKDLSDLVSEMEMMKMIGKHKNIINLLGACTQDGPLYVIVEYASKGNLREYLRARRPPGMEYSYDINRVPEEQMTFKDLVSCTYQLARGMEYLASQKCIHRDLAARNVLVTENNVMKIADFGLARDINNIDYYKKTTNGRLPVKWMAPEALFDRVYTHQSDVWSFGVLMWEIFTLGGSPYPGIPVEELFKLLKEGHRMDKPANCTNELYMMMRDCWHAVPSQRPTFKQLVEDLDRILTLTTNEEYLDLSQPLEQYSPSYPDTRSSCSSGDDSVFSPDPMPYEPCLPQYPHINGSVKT
Experimental: (§2) FGFR1 ∼ 3 kinase assays were performed using the adenosine diphosphate (ADP)-glow kinase assay kit of FGFR1, FGFR2, and FGFR3 kinase enzyme systems (Promega, WI, USA) in accordance with the manufacturer’s instructions. […] The reaction was carried out at 25 °C for 1 h in a total volume of 25 µL. Subsequently, 25 µL of ADP-Glow reagent was added to the mixture, and then incubated for 40 min at 25 °C. After the addition of 50 µL of ADP detection reagents for 30 min at 25 °C, luminescence was measured using a Fluostar Omega microplate reader (BMG LABTECH GmbH, Ortenberg, Germany).

[4] = target: T3, FGFR1 (Homo sapiens, UniProt P11362); test: FGFR1 ADP-glow kinase assay; assay type: biochemical
T3 construct: purchased Promega, WI, USA
T3 sequence (P11362 22-822): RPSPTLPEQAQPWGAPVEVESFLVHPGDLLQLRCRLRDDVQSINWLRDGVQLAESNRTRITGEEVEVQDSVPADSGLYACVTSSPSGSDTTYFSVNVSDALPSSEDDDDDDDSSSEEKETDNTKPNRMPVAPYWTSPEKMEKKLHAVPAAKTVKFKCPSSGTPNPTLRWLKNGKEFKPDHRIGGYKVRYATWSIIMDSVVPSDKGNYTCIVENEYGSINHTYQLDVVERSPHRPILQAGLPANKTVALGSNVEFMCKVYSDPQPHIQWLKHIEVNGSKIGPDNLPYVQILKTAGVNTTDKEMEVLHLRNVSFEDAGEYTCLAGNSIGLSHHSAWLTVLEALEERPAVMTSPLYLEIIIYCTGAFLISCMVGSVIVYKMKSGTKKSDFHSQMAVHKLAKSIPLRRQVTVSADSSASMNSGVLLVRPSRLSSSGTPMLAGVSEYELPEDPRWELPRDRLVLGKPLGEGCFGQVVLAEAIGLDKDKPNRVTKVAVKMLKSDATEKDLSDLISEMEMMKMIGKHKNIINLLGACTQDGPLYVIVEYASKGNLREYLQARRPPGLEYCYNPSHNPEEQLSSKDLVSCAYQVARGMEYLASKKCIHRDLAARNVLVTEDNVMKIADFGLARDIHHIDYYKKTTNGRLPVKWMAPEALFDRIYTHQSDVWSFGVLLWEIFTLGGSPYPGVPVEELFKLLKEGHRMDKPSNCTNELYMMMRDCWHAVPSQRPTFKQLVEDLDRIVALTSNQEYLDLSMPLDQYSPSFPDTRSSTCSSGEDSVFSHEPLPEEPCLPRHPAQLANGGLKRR
Experimental: as §2

[5] = tested on: Hep3B-xenografted CAM tumour model; test: CAM (chick chorioallantoic membrane) tumour model implanted with Hep3B cells; assay type: in vivo
Experimental: Fertile chicken eggs were purchased from Byeolbichon Farm (Gyeongbuk, South Korea) and incubated at 37 °C and under 55% relative humidity. On the 9th day of egg incubation (post-fertilization), false air sac was generated on the relatively flat side of eggs by a negative pressure technique. A small window (1 cm^2) was created on the false air sac surface of the eggs by separating the shell and membrane beneath (technique) using a grinding wheel (Dremel, Racine, WI, USA). Next, Hep3B cells were loaded at a density of 1.5 × 10^6 cells/CAM with or without compound. After four days of drug treatment, the tumour weight, number of vessel branch points within the tumour region were analysed.

[6] = tested on: Hep3B cells; test: Cell proliferation assay (MTT), Hep3B; assay type: cell-based, human
Experimental: as §1
(§3) Cells were seeded at a density of 5000 cells/well in a 96-well plate. After overnight incubation, the cells were serum-starved using 1% FBS for 24 h. The next day, the cells were pre-treated with the different concentrations (0.1, 1, 3, 10, 30, 100 µM) of drugs for 1 h prior to the treatment with serum (10% FBS). After 48 h of incubation, 3–(4,5-dimethylthiazol-2-yl)-2,5-diphenyltetrazolium bromide (MTT) dye solution was added and incubated for 4 h. Next, DMSO was added, and after 30 min, the colour intensities were measured using a microplate reader (Versamax, Molecular Devices, Inc., USA) at 490 nm.

[7] = target: T4, FGFR3 (Homo sapiens, UniProt P22607); test: FGFR3 ADP-glow kinase assay; assay type: biochemical
T4 construct: purchased Promega, WI, USA
T4 sequence (P22607 23-806): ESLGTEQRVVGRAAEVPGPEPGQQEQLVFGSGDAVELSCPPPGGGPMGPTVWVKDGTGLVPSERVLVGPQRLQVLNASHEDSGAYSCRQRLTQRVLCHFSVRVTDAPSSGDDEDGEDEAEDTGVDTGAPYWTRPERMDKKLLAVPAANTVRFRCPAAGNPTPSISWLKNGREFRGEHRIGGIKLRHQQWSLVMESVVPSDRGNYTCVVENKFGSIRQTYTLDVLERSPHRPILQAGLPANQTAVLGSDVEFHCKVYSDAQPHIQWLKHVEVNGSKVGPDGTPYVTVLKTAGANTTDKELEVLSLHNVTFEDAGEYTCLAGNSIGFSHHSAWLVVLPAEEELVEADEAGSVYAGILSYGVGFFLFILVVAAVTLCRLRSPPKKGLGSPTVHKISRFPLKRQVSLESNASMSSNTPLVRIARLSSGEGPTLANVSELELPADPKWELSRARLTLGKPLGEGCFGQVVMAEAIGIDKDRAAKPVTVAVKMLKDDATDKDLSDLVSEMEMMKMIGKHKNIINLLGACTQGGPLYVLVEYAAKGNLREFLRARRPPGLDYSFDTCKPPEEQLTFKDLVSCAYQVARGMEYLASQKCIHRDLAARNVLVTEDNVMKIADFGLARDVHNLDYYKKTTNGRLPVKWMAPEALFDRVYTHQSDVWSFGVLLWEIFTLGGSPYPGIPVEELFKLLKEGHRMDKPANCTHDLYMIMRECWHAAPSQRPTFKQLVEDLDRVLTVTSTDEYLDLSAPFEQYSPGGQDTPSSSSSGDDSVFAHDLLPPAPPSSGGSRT
Experimental: as §2

[8] = tested on: Huh7 cells; test: Cell proliferation assay (MTT), Huh7; assay type: cell-based, human
Experimental: as §1, §3

[9] = four days after Hep3B xenograft on CAM
[10] = number of new vessel branches on CAM, four days

inhibition at 1 µM [1]: 10.3%
Compound: C=CC(=O)Nc1cccc(OC)c1Nc1nc(C)c(OCc2c(F)c(OC)cc(OC)c2F)c(C)c1C [Compound 6Q]

inhibition at 1 µM [1]: 49.3%
Compound: C=CC(=O)Nc1cccc(OC)c1Nc1nc(C)c(OCc2c(F)c(OC)cc(OC)c2F)c(C)n1 [Compound 6S]

inhibition at 1 µM [1]: 10.1%
Compound: C=CC(=O)Nc1ccc(OC)cc1Nc1nc(C)c(OCc2c(F)c(OC)cc(OC)c2F)c(C)c1C [Compound 6U]

inhibition at 1 µM [1]: 12.2%
Compound: C=CC(=O)Nc1ccc(OC)cc1Nc1nc(C)c(OCc2c(F)c(OC)cc(OC)c2F)c(C)n1 [Compound 6W]

inhibition at 0.01 µM [1]: 91%
Compound: C=CC(=O)Nc1cccc(C)c1Nc1ccc(OCc2c(F)c(OC)cc(OC)c2F)cn1 [Compound 41, reference compound]

inhibition at 0.01 µM [1]: 87.4%
Compound: C=CC(=O)Nc1cccc(C)c1Nc1ncc(OCc2c(F)c(OC)cc(OC)c2F)cn1 [Compound 42, reference compound]

Continued, molecule first:

Compound: C=CC(=O)Nc1cc(F)cc(Cl)c1Nc1nc(C)c(OCc2c(F)c(OC)cc(OC)c2F)c(C)c1C [Compound 6M]
inhibition at 1 µM [1]: 9.9%

Compound: C=CC(=O)Nc1cc(F)cc(Cl)c1Nc1nc(C)c(OCc2c(Cl)c(OC)cc(OC)c2Cl)c(C)c1C [Compound 6N]
inhibition at 1 µM [1]: 11.9%

Compound: C=CC(=O)Nc1cc(F)cc(Cl)c1Nc1nc(C)c(OCc2c(F)c(OC)cc(OC)c2F)c(C)n1 [Compound 6O, N-(3-Chloro-2-((5-((2,6-difluoro-3,5-dimethoxybenzyl)oxy)-4,6-dimethylpyrimidin-2-yl)amino)-5-fluorophenyl)acrylamide]
IC50 ([1]; 7 different concentrations, three independent experiments): 0.0753 µM
inhibition at 1 µM [1]: 96.7%
FGFR4 selectivity compared to BLU9931 (1) ([1]; from Table 1 ratios): at least 8 times
IC50 at 48 h [2]: 18 µM
Ratio against FGFR4 (FGFR2) ([3]; ratio of FGFR2 to FGFR4 inhibitory activity): 471.1
IC50 ([3]; three independent experiments): 35.5 µM
Ratio against FGFR4 (FGFR1) ([4]; ratio of FGFR1 to FGFR4 inhibitory activity): > 663.8
IC50 ([4]; three independent experiments): > 50 µM
inhibitory effect on the tumour weight compared with compound 1 [5, 9]: slightly weaker
tumour growth [5, 9]: dose-dependently inhibited
antiangiogenic effect compared with compound 1 [5, 10]: slightly weaker
tumour-induced angiogenesis [5, 10]: significantly blocked
fold less potent than compound 1, Hep3B IC50 ([6]; 48 h): 5 fold
IC50 ([6]; Homo sapiens, Hep3B, 48 h treatment, mean ± SEM of three independent experiments): 4.5 µM
Ratio against FGFR4 (FGFR3) ([7]; ratio of FGFR3 to FGFR4 inhibitory activity): > 398.3
IC50 ([7]; three independent experiments): > 30 µM
IC50 ([8]; Homo sapiens, Huh-7, 48 h treatment, mean ± SEM of three independent experiments): 12.6 ± 1.3 µM
difference of anti-proliferative activity between Hep3B and Huh7 ([8]; Huh7 versus Hep3B, 48 h): 2.8 fold

Compound: C=CC(=O)Nc1cc(F)cc(Cl)c1Nc1nc(C)c(OCc2c(Cl)c(OC)cc(OC)c2Cl)c(C)n1 [Compound 6P]
inhibition at 1 µM [1]: 12.8%

Compound: C=CC(=O)Nc1cccc(OC)c1Nc1nc(C)c(OCc2c(Cl)c(OC)cc(OC)c2Cl)c(C)c1C [Compound 6R]
inhibition at 1 µM [1]: 6.9%

Compound: C=CC(=O)Nc1cccc(OC)c1Nc1nc(C)c(OCc2c(Cl)c(OC)cc(OC)c2Cl)c(C)n1 [Compound 6T]
inhibition at 1 µM [1]: 11%

Compound: C=CC(=O)Nc1ccc(OC)cc1Nc1nc(C)c(OCc2c(Cl)c(OC)cc(OC)c2Cl)c(C)c1C [Compound 6V]
inhibition at 1 µM [1]: 7.7%

Compound: C=CC(=O)Nc1ccc(OC)cc1Nc1nc(C)c(OCc2c(Cl)c(OC)cc(OC)c2Cl)c(C)n1 [Compound 6X]
inhibition at 1 µM [1]: 6.3%

Compound: C=CC(=O)Nc1ccc(N2CCN(CC)CC2)cc1Nc1nc(C)c(OCc2c(F)c(OC)cc(OC)c2F)c(C)c1C [Compound 6Y]
inhibition at 1 µM [1]: 10.4%

Compound: C=CC(=O)Nc1ccc(N2CCN(CC)CC2)cc1Nc1nc(C)c(OCc2c(Cl)c(OC)cc(OC)c2Cl)c(C)c1C [Compound 6Z]
inhibition at 1 µM [1]: 2.7%
